molecular target: 72 kDa type IV collagenase (Homo sapiens, UniProt P08253); test: Inhibition Assay
Description: Inhibition assay using matrix metalloproteinase (MMP-2).

72 kDa type IV collagenase, sequence (P08253 whole entry): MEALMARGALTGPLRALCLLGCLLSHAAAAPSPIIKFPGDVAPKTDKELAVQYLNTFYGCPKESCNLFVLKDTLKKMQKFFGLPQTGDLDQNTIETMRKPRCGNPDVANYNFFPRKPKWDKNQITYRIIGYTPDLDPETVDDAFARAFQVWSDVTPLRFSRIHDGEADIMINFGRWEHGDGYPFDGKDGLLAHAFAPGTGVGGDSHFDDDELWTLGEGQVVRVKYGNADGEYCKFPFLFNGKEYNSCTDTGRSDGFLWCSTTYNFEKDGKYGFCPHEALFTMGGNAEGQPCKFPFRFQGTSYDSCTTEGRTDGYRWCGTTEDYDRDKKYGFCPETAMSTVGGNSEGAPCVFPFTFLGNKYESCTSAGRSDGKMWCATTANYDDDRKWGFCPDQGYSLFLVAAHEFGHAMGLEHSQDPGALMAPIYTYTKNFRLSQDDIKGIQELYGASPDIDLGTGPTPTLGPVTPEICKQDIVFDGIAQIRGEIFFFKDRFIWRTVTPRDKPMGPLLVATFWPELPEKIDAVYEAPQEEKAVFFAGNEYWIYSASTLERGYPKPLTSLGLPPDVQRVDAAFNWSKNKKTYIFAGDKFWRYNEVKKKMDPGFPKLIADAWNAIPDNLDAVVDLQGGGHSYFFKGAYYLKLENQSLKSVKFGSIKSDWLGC

SMILES | Ki
CC(C)(C1CS1)S(=O)(=O)c1ccc(Oc2ccccc2)cc1 (stereo not drawn) [Alpha, alpha-dimethyl derivative, 5] | > 40000 nM
CC1(C)SC1CS(=O)(=O)c1ccc(Oc2ccccc2)cc1 (centres undefined) [Gama, gama-dimethyl derivative, 6] | 1400 nM
[O-][S+](CC1CS1)c1ccc(Oc2ccccc2)cc1 (centres undefined) [Sulfoxide, 4] | 2100 nM
O=S(=O)(/C=C/CS)c1ccc(Oc2ccccc2)cc1 [Vinylsulfone, 7] | 0.53 nM

— BindingDB's records for doi:10.1111/j.1747-0285.2009.00881.x (University of Notre Dame, 2009)
